Experimental data: US20120322768A1, “COMPOUNDS, COMPOSITIONS AND METHODS FOR TREATING PROTOZOAN INFECTIONS” (QUEEN MARY & WESTFIELD COLLEGE, priority 2009, published 2012)
Like-named read-outs stand apart in the source and are kept apart here.

B1: T. brucei NTR (TbNTR) (Trypanosoma brucei brucei TREU927) (protein)
chain: DAFIRVVERRHSSKRFDSSRPVDHTLIARLLEATTRAPTAFNLQPWVAIVVHETSQRGALSHAALDQPQPREAPVTVVFAGDMEPEWRAPAALELGLNSGYYHPLYGAAYLRLVYYHLHGGPFGSMAKAKSCISSWYSNATGTPLLSVPTTMQGYAWKQAMIPATTFIYAATAAGLDTAILEGFDEAKVREVVGLPERYTVPVIISVGYKKADEQGKPPVRSPRFSTGSLVRWNRF

Columns and labels:
[1] = system: bloodstream form T. brucei; test: microbe, parasite or virus in culture; assay type: cell-based; conditions: Trypanosoma brucei
THP-1 cells = test: cells; conditions: Homo sapiens, THP-1, 144 h, read-out: IC50 THP1
[2] = system: intracellular form T. cruzi; test: microbe, parasite or virus in culture; assay type: cell-based; conditions: Trypanosoma cruzi, Vero, 72 h, read-out: IC50 T. cruzi
Vero cells = test: cells; assay type: cell-based; conditions: Chlorocebus sabaeus, read-out: IC50 Vero cells
[3] = system: insect form Leishmania major; test: microbe, parasite or virus in culture; assay type: cell-based; conditions: 144 h, read-out: IC50 L. major
[4] = Stability in phosphate buffer (HPLC); assay type: physicochemical; conditions: pH 7.4, 100 mM phosphate buffer, three-day incubation at 37° C., 100 μM
Experimental: (§1) Select nitrobenzyl phosphoramide mustards (100 μM) were incubated in pH 7.4 100 mM phosphate buffer or in whole human blood at 37° C. Aliquots were withdrawn at different time intervals and mixed with acetonitrile (1-1 for phosphate buffer and 1-5 for whole blood). The samples were centrifuged and analyzed by HPLC.

[5] = Stability in whole human blood (HPLC); assay type: in vitro ADME; conditions: three-day incubation at 37° C., 100 μM
Experimental: as §1

[6] = substrate: CC1CS(=O)(=O)CCN1/N=C/c1ccc([N+](=O)[O-])o1; test: TbNTR enzyme activity by NADH oxidation (absorbance at 340 nm); assay type: biochemical, T. brucei; conditions: other: apparent; NADH 100 μM, substrate 2-75 μM
Experimental: Enzyme activity was measured by following the change in absorbance at 340 nm due to NADH oxidation (34, 35). A reaction mixture (1 ml) containing 50 mM Tris-Cl pH 7.0, 100 μM NADH and NBPM (Tables 1 and 2) was incubated at room temperature for 5 min. The background rate of NADH oxidation was determined and the reaction initiated by the addition of 20 μg TbNTR. The enzyme activity was calculated using c of 6,220 M^−1 cm^−1. The absorbance spectrum (320-600 nm) for each NBPM was determined before.

[7] = 72 h, read-out: IC50 T. bruccei
[8] = read-out: IC50 against bloodstream form T. brucei

Molecule | IC50 [1, 7] | IC50 (THP-1 cells) | IC50 [1, 8] | IC50 [2] | IC50 (Vero cells) | IC50 [3] | also measured
NP(=O)(OCc1ccc([N+](=O)[O-])cc1)N(CCCl)CCCl (centres unmarked) [LH7] | 3.4 ± 0.3 µM | 66 ± 0.8 µM |  |  |  |  | 
NP(=O)(OCc1ccc([N+](=O)[O-])cc1F)N(CCCl)CCCl (centres unmarked) [LH32, 2-Fluoro-4-nitrobenzyl phosphoramide mustard] | 0.268 ± 0.008 µM | 20.3 ± 1.8 µM | 0.268 ± 0.008 µM | 9.54 ± 0.27 µM | > 100 µM | 4.72 ± 0.23 µM | 
NP(=O)(OCc1ccc([N+](=O)[O-])cc1C(F)(F)F)N(CCCl)CCCl (centres unmarked) [LH33, 2-Trifluoromethyl-4-nitrobenzyl phosphoramide mustard] | 0.149 ± 0.02 µM | 19 ± 1.9 µM | 0.149 ± 0.02 µM | 7.97 ± 1.13 µM | > 100 µM | 5.88 ± 0.28 µM | 
NP(=O)(OCc1ccc([N+](=O)[O-])cc1Cl)N(CCCl)CCCl (centres unmarked) [LH34, 2-Chloro-4-nitrobenzyl phosphoramide mustard] | 0.008 ± 0.001 µM | 10 ± 1.2 µM | < 0.01 µM | 9.14 ± 0.54 µM | > 100 µM | 3.1 ± 0.28 µM | Stability in phosphate buffer [4]: stable; change in peak area in whole human blood [5]: less than 30%
NP(=O)(OCc1c(F)cc([N+](=O)[O-])cc1F)N(CCCl)CCCl (centres unmarked) [LH37, 2,6-Difluoro-4-nitrobenzyl phosphoramide mustard] | 0.007 µM | 6.9 µM | < 0.01 µM | 0.99 ± 0.01 µM | > 100 µM | 1.29 ± 0.08 µM | Stability in phosphate buffer [4]: completely stable; Stability in human whole blood [5]: completely stable
CC1CS(=O)(=O)CCN1/N=C/c1ccc([N+](=O)[O-])o1 (centres unmarked) [Nifurtimox, reference compound] |  | 64.8 ± 1.5 µM |  |  |  |  | 
Nc1nc(N)nc(Nc2ccc([As]3SCC(CO)S3)cc2)n1 (centres unmarked) [melarsoprol, reference compound] |  |  |  |  |  |  | IC50 ([1]; read-out: drug sensitivity (IC50)): ~4 µM
B1 |  |  |  |  |  |  | Km [6]: 53.1 ± 15.2 µM; Vmax [6]: 0.423 µmol/min/mg; kcat/Km [6]: 3400 M⁻¹ s⁻¹
